Source: US20260325464A1, “COMPOSITIONS FOR MODULATING THE EXPRESSION OF AQUAPORINS IN NEURODEGENERATIVE DISORDERS” (priority 2023, published 2026)
Marks after values point to notes of the source that are not given here.

Assays:
Format in all cases: in vivo, rat
Aquaporin-4 (AQP4) = assay: AQP4 expression in brain homogenate (ELISA), AlCl3 Alzheimer's model; conditions: 5, 10 and 20 mg/kg, FIG. 1
Text: Aquaporin-4 (AQP4) is a channel protein that plays a fundamental role in glymphatic system, a pathway for fluid exchange in the central nervous system, as well as a central figure in the pathophysiology of neurodegenerative diseases such as Alzheimer's disease (AD) and frontotemporal dementia. It plays an important role in maintaining cerebral fluid homeostasis by acting as a water channel protein. The AQP4 not only enables water permeability through the blood-brain barrier and also regulates water exchange between perivascular spaces and the rest of the glymphatic system (Szczygielski et al., Cerebral Microcirculation, Perivascular Unit, and Glymphatic System: Role of Aquaporin-4 as the Gatekeeper for Water Homeostasis, Front. Neurol. 12:767470, doi: 10.3389/fneur.2021.767470). Further, Astrocytes are known to maintain extracellular potassium concentrations in the brain by a process termed “potassium siphoning”. Changes in potassium channel function alters brain homeostasis leading to brain impairment. Water movement via the AQP4 water channel localized to astrocyte end-feet maintains osmotic balance and promotes effective potassium siphoning (Verkman A S, Aquaporins in Clinical Medicine, Annu. Rev. Med. 2012. 63:303-16). […] In the present study, the levels were determined using ELISA kit (Biogenuix Medsystems Pvt. Ltd.).

Tau = Tau level in plasma (ELISA), AlCl3 Alzheimer's model; conditions: 5, 10 and 20 mg/kg, FIG. 2
Text: (§1) The levels of Tau, β-amyloid (1-42) and Apolipoprotein E were estimated. using ELISA kit (Krishgen Biosystems, India). All the protein biomarkers of AD were elevated in the AD control group.

Apolipoprotein E = Apolipoprotein E level in plasma (ELISA), AlCl3 Alzheimer's model; conditions: for Apolipoprotein E: p.o. + AlCl3 (100 mg/kg, i.p.), plasma, Mean ± SEM, n = 6
Text: as §1

IL-1β = assay: Inflammatory marker IL-1β (ELISA), AlCl3 Alzheimer's model; conditions: for IL-1β: p.o. + AlCl3 (100 mg/kg, i.p.), n = 6
Text: The inflammatory markers Fibrinogen, IL-1β were estimated using ELISA kit (Krishgen Biosystems, India).

[1] = test system: frontal cortex and hippocampus; assay: Brain histopathology (H&E), AlCl3 Alzheimer's model; conditions: 5 mg/kg, 10 mg/kg and 20 mg/kg
Text: The brain histopathology was done for all the experimental groups. The brain tissue was fixed in 10% buffered neutral formalin solution. The tissue was embedded in paraffin, sectioned at […] stained with hematoxylin and eosin (H&E). The sections were examined under light microscope to study the architecture of the brain tissue, and then photomicrographs were taken (Fischer A H, Jacobson K A, Rose J, Zeller R. Hematoxylin and eosin staining of tissue and cell sections. CSH Protoc. 2008:1;pdb.prot4986. doi: 10.1101/pdb.prot4986).

Parkinson's disease = assay: Y-maze test in rats with reserpine-induced Parkinson's disease; conditions: for No of arm entries / Spontaneous alterations (%): p.o. + Reserpine (4 mg/kg, s.c.), Y maze, Mean ± SEM, n = 6
Text: (§2) The induction of Parkinson's disease and measurement of other parameters were done as per the reported protocol (Santos et al., Cognitive, motor and tyrosine hydroxylase temporal impairment in a model of parkinsonism induced by reserpine. Behav Brain Res. 2013; 253:68-77 and Shishehbore et al. A novel kinetic spectrophotometric method for the determination of dopamine in biological and pharmaceutical samples. J Chem. 2013; 2013:1-6). Induction of Parkinson's disease was done by administering Resperine, which inhibits the monoamine vesicular transporters, thus decreasing the levels of monoamine neurotransmitters in the brain. Following pretreatment for 14 days with Gingerenone A, the rat groups received subcutaneous injections of reserpine (4 mg/kg) for the final five days of the treatment regimen. Resperine (5 mg) was dissolved in 1 ml of 1% acetic acid and then diluted tenfold with distilled water to achieve a final concentration of 500 μg/ml. The normal control group received saline with 1% acetic acid […], administered from day 10 to day 14. Thirty minutes following the administration of reserpine on the 14th day, behavioural assessments were conducted using the Open Field test, Y Maze, and Catalepsy tests to evaluate changes. Rats administered with Carbidopa, a known drug for the management of Parkinson's disease was also used for comparison. Upon completion of the study, brains were harvested for biochemical analyses and histopathological studies. The experimental group is depicted in table 10.
Y-maze test—In the Y-maze test, spontaneous alterations serve as an indicator of working short-term memory.
The maze consisted of a triangular central area with three equilateral arms labeled A, B, and C, each measuring 35 cm in length, 25 cm in height, and 10 cm in width. During the test, each rat was placed in the central area, facing one of the arms. An entry was scored when all four paws of the rat entered an arm. Spontaneous alterations in behavior were defined as consecutive entries into different arms (e.g., ABC, BCA, or CAB, but not CAC). The maximum number of spontaneous alterations ([…]) and the percentage of spontaneous alterations (actual number of alterations divided by the maximum alterations, multiplied by 100) were calculated for each rat (Kraeuter et al., The Y-Maze for Assessment of Spatial Working and Reference Memory in Mice. Methods Mol Biol. 2019; 1916:105-111).

Aquaporin 9 (AQP9) = assay: AQP9 expression, reserpine Parkinson's model; conditions: 5, 10 and 20 mg/kg, FIG. 9
Text: as §2, with “Upon completion of the study, brains were harvested for biochemical analyses and histopathological studies. The experimental group is depicted in table 10.” left out

## COc1cc(CC/C=C/C(=O)CCc2ccc(O)c(OC)c2)ccc1O [Gingerenone A]
Aquaporin-4 (AQP4)
  AQP4 expression (in words): increased AQP4 expression
Tau
  Tau levels in plasma (in words): significantly reduced
Apolipoprotein E; 5 mg/kg
  Apolipoprotein E: 7.47 ± 0.054 ng/mL
Apolipoprotein E; 10 mg/kg
  Apolipoprotein E: 7.08 ± 0.076 ng/mL
Apolipoprotein E; 20 mg/kg
  Apolipoprotein E: 6.84 ± 0.034 ng/mL
Apolipoprotein E; AlCl3 model, Table 8
  levels of Apolipoprotein E (in words): significantly reduced
IL-1β; 5 mg/kg
  IL-1β: 97.92 pg/mL
IL-1β; 10 mg/kg
  IL-1β: 84.90* pg/ml
IL-1β; 20 mg/kg
  IL-1β: 80.65** pg/ml
IL-1β; AlCl3 model, Table 9
  IL-1β (in words): significantly reduced
[1]; FIG. 5A, 6A, 7A
  histopathology of frontal cortex: intact pyramidal cells having round to oval vesicular nucleus with abundant cytoplasm, neuroglial cells, granular cells and intact blood vessels with degenerated cells [mild to moderate] with dystrophic changes having shrunken and hyperchromatic nuclei and without inflammation
[1]; FIG. 5B-D, 6B-D, 7B-D
  histopathology of hippocampus (CA1, CA2, CA3): intact architecture consisting of Cornu Ammonis [CA] and dentate gyrus with compact layers of pyramidal cells having vesicular nuclei and moderate cytoplasm without shrinkage and necrosis
Parkinson's disease; 5 mg/kg
  No of arm entries: 9.37 ± 0.29
  Spontaneous alterations (%): 21.43 ± 1.08 %
Parkinson's disease; 10 mg/kg
  No of arm entries: 11.57 ± 0.92
  Spontaneous alterations (%): 26.87 ± 1.05 %
Parkinson's disease; 20 mg/kg
  No of arm entries: 12.09 ± 1.39
  Spontaneous alterations (%): 26.21 ± 0.98 %
Parkinson's disease; reserpine model, Table 12
  working memory in Y-maze (in words): significantly increase the working memory with increase in entries in the different arms with more number of alterations
Aquaporin 9 (AQP9)
  AQP9 expression (in words): inhibited AQP9 expression
